Patent US8623859B2, “Bradykinin B1 antagonists” (Evotec AG, priority 2008, dated 2014)
Counter-ions that a name gives are not always drawn.

Each compound was assayed against T1, human B1 (Homo sapiens, UniProt P46663) (assay: Calcium flux assay for Bradykinin B1 antagonist, CHO-K1 cell line expressing human B1). Conditions: CHO-K1 cells expressing human B1, agonist Lys-(Des-Arg)-Bradykinin, read-out: Potency (IC50 value against human B1).
T1 construct: host or cells: CHO-K1
T1 sequence (P46663 1-353): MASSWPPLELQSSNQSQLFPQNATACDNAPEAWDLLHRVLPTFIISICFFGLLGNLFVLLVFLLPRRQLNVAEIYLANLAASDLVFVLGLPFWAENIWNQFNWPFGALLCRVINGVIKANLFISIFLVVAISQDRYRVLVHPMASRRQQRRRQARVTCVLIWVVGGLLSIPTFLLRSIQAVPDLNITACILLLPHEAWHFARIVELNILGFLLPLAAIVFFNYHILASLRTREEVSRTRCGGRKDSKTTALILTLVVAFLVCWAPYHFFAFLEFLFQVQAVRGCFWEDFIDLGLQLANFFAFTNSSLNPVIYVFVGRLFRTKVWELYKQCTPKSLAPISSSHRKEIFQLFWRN
Format: cell-based
Method: Calcium Flux Assay for Bradykinin B1 Antagonist
The potency to inhibit the Bradykinin B1 receptors was determined for the compounds of this invention in a cell-based fluorescent calcium-mobilization assay. The assay measures the ability of test compounds to inhibit Bradykinin B1 receptor agonist-induced increase of intracellular free Ca^2+ in cell lines expressing B1.
The change of the intracellular Ca^2+ concentration is monitored with a specifically designed fluorescent plate reader (FlexStation, Molecular Devices).
CHO-K1 cell line expressing human B1 was purchased from Euroscreen (Gosselies, Belgium, with reference name hBl-D1). CHO-K1 cell lines expressing rat B1 or mouse B1 were established in the following way: the full-length receptor-coding cDNA clones were obtained by PCR performed on rat or mouse brain cDNAs. The respective cDNAs were cloned into an expression vector under the control of a CMV promotor. The resultant plasmids were introduced into CHO-K1 cells with liposome technology (FuGENE; Roche Diagnostics, Basel), according to the standard protocols described by the manufacturer. Cell lines expressing a Bradykinin receptor were selected in the culture medium containing 400 μg/ml G418 (Sigma). From selected cell populations, monoclonal cell lines were isolated by single cell cloning. The expression of Bradykinin receptors was confirmed by immunofluorescence staining of the cells, as well as by calcium flux assay.
Human B1-expressing cells were grown in Nutrient Mixture Ham's F12 (Sigma) containing 10% Foetal bovine serum (Sigma) and 400 μg/ml G418 (Sigma), 5 μg/ml puromycim (Sigma); Rat B1 and mouse B1-expressing cells were grown in DMEM/F12 medium (Sigma) containing 10% Foetal bovine serum (Sigma) and 400 μg/ml G418 (Sigma).
For the calcium flux assay, 80% confluent cells were detached from the culture vessels with Versene (Gibco; for human B1 cell-line) or with 1× trypsin-EDTA solution (Sigma; for rodent B1 cell-line), and seeded into 384-well plates (Cell binding Surface; Corning, N.Y.; #3683) at a density of 15,000 cells per well for human B1 or at a density of 20,000 cells per well for rodent B1. Cells were seeded in a volume of 50 μl in medium without antibiotics and incubated overnight in a humidified atmosphere with 5% CO2 at 37° C. The following day, the medium was replaced with 20 μl of 5 μM Fluo-4AM dye (Molecular Probes) in assay buffer (2.5 mM probenicid, 1 mg/ml pluronic acid, 0.1% BSA, 135 mM NaCl, 5 mM KCl, 1.8 mM CaCl, 1 mM MgCl2, 10 mM HEPES, 5.6 mM glucose, 0.05% gelatine, pH 7.4). The calcium indicator loaded cells were incubated at 37° C. for 2 hrs. Extracellular dye was then removed and each well was filled with 45 μl of assay buffer. Cell plates were kept in dark until used. Test compounds were assayed at 8 concentrations in triplicate. Serial 10-fold dilutions in 100% DMSO were made at a 100-times higher concentration than the final concentration, and then diluted 1:10 in assay buffer. 5 μl of each diluted compound was added to the well of cell plates (yielding final concentration with 1% DMSO), and incubated for 30 min at 25° C. before the addition of B1 agonist on the FlexStation.
The addition of agonist 20 μl per well to the assay plate was carried out on the FlexStation while continuously monitoring Ca^2+-dependent fluorescence at 538 nm. The integrated values, normalized with the background fluorescence, were plotted against the logarithm of the antagonist concentrations.

| IC50 [nM] | SMILES |
| --- | --- |
| 10 to 100 | COc1cc(C)c(S(=O)(=O)N(Cc2nc(C(=O)N3CCN(Cc4c[nH]nc4C)CC3)co2)C2CC2)c(C)c1 [Ex 255, N-Cyclopropyl-4-methoxy-2,6-dimethyl-N-{[4-({4-[(3-methyl-1H-pyrazol-4-yl)methyl]piperazin-1-yl}carbonyl)-1,3-oxazol-2-yl]methyl}benzenesulfonamide] |
| 10 to 100 | COc1cc(C)c(S(=O)(=O)N(C)Cc2cc(C(=O)N(C)Cc3ccc(CN4CCC(OC)CC4)cc3)co2)c(C)c1 [Ex 127, 5-({[(4-Methoxy-2,6-dimethylphenyl)sulfonyl](methyl)amino}methyl)-N-{4-[(4-methoxypiperidin-1-yl)methyl]benzyl}-N-methylfuran-3-carboxamide] |
| < 10 | COc1cc(C)c(S(=O)(=O)N(Cc2nc(C(=O)N(C)Cc3ccc(CN4CCC(OC)C4)cc3)co2)C2CC2)c(C)c1 (centres unmarked) [Ex 182, 2-({Cyclopropyl[(4-methoxy-2,6-dimethylphenyl)sulfonyl]amino}methyl)-N-{4-[(3-methoxypyrrolidin-1-yl)methyl]benzyl}-N-methyl-1,3-oxazole-4-carboxamide] |
| 100 to 1000 | COc1cc(C)c(S(=O)(=O)N(Cc2noc(C(=O)N3CCN(CCCCN(C)C)CC3)n2)C2CC2)c(C)c1 [Ex 320, N-Cyclopropyl-N-{[5-({4-[4-(dimethylamino)butyl]piperazin-1-yl}carbonyl)-1,2,4-oxadiazol-3-yl]methyl}-4-methoxy-2,6-dimethylbenzenesulfonamide trifluoroacetate] |
| < 10 | COc1cc(C)c(S(=O)(=O)N(Cc2nc(C(=O)N(C)Cc3ccc(CN4CC(O)C(O)C4)cc3)co2)C2CC2)c(C)c1 (centres unmarked) [Ex 189, 2-({Cyclopropyl[(4-methoxy-2,6-dimethylphenyl)sulfonyl]amino}methyl)-N-{4-[(3,4-dihydroxypyrrolidin-1-yl)methyl]benzyl}-N-methyl-1,3-oxazole-4-carboxamide] |
| 100 to 1000 | COc1cc(C)c(S(=O)(=O)N(C)Cc2nnc(C(=O)N3CCN(CCN4CCCC4)CC3)s2)c(C)c1 [Ex 326, 4-Methoxy-N,2,6-trimethyl-N-[(5-{[4-(2-pyrrolidin-1-ylethyl)piperazin-1-yl]carbonyl}-1,3,4-thiadiazol-2-yl)methyl]benzenesulfonamide] |
| < 10 | COc1cc(C)c(S(=O)(=O)N(Cc2noc(C(=O)N(C)Cc3nnc(CN4CCCC4)s3)n2)C2CC2)c(C)c1 [Ex 313, 3-({Cyclopropyl[(4-methoxy-2,6-dimethylphenyl)sulfonyl]amino}methyl)-N-methyl-N-{[5-(pyrrolidin-1-ylmethyl)-1,3,4-thiadiazol-2-yl]methyl}-1,2,4-oxadiazole-5-carboxamide] |
| 100 to 1000 | CCN(Cc1cc(C(=O)NCCc2ccc(C3=NCCN3)cc2)co1)S(=O)(=O)c1c(Cl)cccc1Cl [Ex 122, 5-({[(2,6-Dichlorophenyl)sulfonyl](ethyl)amino}methyl)-N-{2-[4-(4,5-dihydro-1H-imidazol-2-yl)phenyl]ethyl}furan-3-carboxamide trifluoroacetate] |
| < 10 | COc1cc(C)c(S(=O)(=O)N(Cc2cc(C(=O)N3CCN(CC4CCN(C)CC4)CC3)co2)C2CC2)c(C)c1 [Ex 89, N-Cyclopropyl-4-methoxy-2,6-dimethyl-N-{[4-({4-[(1-methylpiperidin-4-yl)methyl]piperazin-1-yl}carbonyl)furan-2-yl]methyl}benzenesulfonamide] |
| < 10 | COc1cc(C)c(S(=O)(=O)N(C)Cc2cc(C(=O)NCCc3ccc(C4=NC(C)CN4)cc3)co2)c(C)c1 (centres unmarked) [Ex 7, 5-({[(4-methoxy-2,6-dimethylphenyl)sulfonyl](methyl)amino}methyl)-N-{2-[4-(4-methyl-4,5-dihydro-1H-imidazol-2-yl)phenyl]ethyl}furan-3-carboxamide] |
| 10 to 100 | COc1cc(C)c(S(=O)(=O)N(C)Cc2cc(C(=O)N(C)Cc3ccc(CN4CCC(O)C4)cc3)co2)c(C)c1 (centres unmarked) [Ex 135, N-{4-[(3-Hydroxypyrrolidin-1-yl)methyl]benzyl}-5-({[(4-methoxy-2,6-dimethylphenyl)sulfonyl](methyl)amino}methyl)-N-methylfuran-3-carboxamide] |
